For series [1], the target named is baculovirus-expressed ALK (Homo sapiens, UniProt Q9UM73). Put plainly: ALK Kinase Assay (ELISA/TRF, PLC-γ substrate). Further: 1 µM ATP (Km level). It is filed as biochemical. The note with it: read-out: ALK Kinase Inhibition (IC50). Summed up:
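ALK at 30 ng/ml phosphorylated plate-bound PLC-γ–GST fusion (coated from 10 μg/mL) during 15 minutes at 37° C. Product was detected with Eu-N1 PT66 anti-phosphotyrosine antibody and measured by time-resolved fluorescence.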

The target of series [2] is T1, c-Met (cytoplasmic domain) (Homo sapiens, UniProt P08581).
T1 construct: Reactions were initiated with 30 ng/mL c-Met (cytoplasmic domain, Invitrogen Corporation #PV3143); purchased Invitrogen Corporation PV3143
Nature of the series: c-Met Kinase Assay (ELISA/TRF, PLC-γ substrate). It is filed as biochemical. Conditions: 3 μM ATP (Km level); read-out: c-Met Kinase Inhibition (IC50). A digest of the protocol: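 Readout is TRF of europium anti-phosphotyrosine (PT66) bound to GST–PLC-γ substrate coated at 10 μg/mL, after a 15 min, 37 °C reaction started with 30 ng/mL c-Met cytoplasmic domain. Percent inhibition plotted against log compound concentration and fitted (variable slope) for IC50.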
(In general: An ELISA detects its analyte on a solid surface through an enzyme-linked reagent.)

For orientation: IC50 means the concentration needed to halve the response being measured. Broadly, the melting point is the temperature, or range, at which the solid turns liquid.

T1 sequence (P08581 956-1390 limits assumed): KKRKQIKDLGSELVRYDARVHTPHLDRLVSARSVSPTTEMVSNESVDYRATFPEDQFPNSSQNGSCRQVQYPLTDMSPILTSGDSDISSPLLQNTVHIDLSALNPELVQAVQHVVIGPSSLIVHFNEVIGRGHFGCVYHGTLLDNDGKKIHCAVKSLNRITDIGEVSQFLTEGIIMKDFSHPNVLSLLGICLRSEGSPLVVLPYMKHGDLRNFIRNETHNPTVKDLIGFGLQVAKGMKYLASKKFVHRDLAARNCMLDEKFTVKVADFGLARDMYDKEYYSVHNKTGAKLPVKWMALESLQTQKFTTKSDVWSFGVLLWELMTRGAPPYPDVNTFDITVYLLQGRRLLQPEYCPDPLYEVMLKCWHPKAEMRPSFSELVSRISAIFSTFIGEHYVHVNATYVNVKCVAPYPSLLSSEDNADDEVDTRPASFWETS
Chain of baculovirus-expressed ALK (Q9UM73 19-1620): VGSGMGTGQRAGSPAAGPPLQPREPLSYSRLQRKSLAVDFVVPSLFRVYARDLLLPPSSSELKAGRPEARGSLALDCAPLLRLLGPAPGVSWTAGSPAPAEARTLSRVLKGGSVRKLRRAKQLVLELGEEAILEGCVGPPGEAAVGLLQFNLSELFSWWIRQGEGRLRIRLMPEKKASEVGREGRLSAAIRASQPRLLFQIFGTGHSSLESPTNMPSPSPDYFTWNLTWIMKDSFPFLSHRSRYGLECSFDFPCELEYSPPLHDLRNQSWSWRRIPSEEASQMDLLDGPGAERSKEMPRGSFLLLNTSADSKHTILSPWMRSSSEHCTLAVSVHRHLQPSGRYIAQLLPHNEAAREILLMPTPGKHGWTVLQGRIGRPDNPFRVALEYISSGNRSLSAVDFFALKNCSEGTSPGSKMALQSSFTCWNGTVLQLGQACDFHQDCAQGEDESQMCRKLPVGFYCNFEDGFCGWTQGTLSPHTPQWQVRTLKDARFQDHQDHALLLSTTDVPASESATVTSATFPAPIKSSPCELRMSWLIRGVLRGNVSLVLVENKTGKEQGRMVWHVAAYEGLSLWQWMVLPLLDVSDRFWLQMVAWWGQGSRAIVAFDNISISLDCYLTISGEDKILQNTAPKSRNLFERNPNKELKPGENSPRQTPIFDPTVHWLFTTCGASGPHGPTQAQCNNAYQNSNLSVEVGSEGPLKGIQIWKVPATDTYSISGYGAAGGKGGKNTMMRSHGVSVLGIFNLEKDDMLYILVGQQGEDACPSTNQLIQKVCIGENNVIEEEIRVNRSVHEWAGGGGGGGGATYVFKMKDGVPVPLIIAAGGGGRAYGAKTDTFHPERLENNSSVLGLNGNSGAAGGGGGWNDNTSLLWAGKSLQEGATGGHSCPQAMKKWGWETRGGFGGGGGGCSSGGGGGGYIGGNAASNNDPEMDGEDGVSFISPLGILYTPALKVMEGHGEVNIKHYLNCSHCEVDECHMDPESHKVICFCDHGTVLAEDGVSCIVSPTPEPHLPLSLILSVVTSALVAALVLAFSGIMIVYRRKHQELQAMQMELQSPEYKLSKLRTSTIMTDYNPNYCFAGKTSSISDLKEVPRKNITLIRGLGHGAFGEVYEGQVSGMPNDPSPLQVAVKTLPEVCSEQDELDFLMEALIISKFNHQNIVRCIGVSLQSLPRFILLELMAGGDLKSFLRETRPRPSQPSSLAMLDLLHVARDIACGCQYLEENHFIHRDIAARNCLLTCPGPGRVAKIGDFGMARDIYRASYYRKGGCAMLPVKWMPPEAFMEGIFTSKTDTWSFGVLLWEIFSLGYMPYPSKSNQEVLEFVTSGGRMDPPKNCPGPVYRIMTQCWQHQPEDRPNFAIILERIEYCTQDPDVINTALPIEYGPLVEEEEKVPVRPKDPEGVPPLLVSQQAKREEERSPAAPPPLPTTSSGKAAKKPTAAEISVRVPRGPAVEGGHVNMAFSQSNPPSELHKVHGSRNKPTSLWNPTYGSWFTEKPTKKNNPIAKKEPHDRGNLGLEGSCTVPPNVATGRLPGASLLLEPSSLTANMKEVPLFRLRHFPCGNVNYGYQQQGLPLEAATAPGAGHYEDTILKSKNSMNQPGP

As to `N#Cc1c(F)ccc(F)c1CN1CCNc2ncc(-c3ccc(N4CCOCC4)nc3)cc21` [Example 289, 3,6-Difluoro-2-[7-(6-morpholin-4-yl-pyridin-3-yl)-3,4-dihydro-2H-pyrido[2,3-b]pyrazin-1-ylmethyl]benzonitrile], the melting point fell in the range of 188 to 190 °C. In addition, the IC50 in series [1] is less than 0.1 µM. The IC50 in series [2] was in the range of 0.1 to 1 µM.

On to `FC(F)(F)c1ccc(Cl)cc1CN1CCNc2ncc(I)cc21` [Example 115, 1-(5-Chloro-2-trifluoromethylbenzyl)-7-iodo-1,2,3,4-tetrahydropyrido[2,3-b]pyrazine], for which the melting point was 189 to 191 °C. Besides, the IC50 in series [1] is 1 to 10 µM. In addition, the half-inhibitory concentration (IC50) in series [2] is greater than 100 µM.

For `CN1CCN(C(=O)c2ccc(-c3cnc4c(c3)N(Cc3cc(F)ccc3F)C(=O)CN4)cc2)CC1` [Example 59, 1-(2,5-Difluorobenzyl)-7-[4-(4-methylpiperazine-1-carbonyl)phenyl]-3,4-dihydro-1H-pyrido[2,3-b]pyrazin-2-one], the melting point is 223 °C (dec.). The IC50 in series [1] was in the range of 0.1 to 1 µM. Also, the IC50 in series [2] lay within 10 to 100 µM.

In turn, `O=C1CCNc2nc(Br)ccc21` [Example 266, 7-bromo-2,3-dihydro-1H-[1,8]naphthyridin-4-one] had a melting point of 196 to 197 °C. For the same compound, the IC50 in series [1] was greater than 100 µM. In series [2], the IC50 was greater than 100 µM.

Consider `Clc1cccc(OC2CCNc3ncc(-c4ccc(N5CCOCC5)cc4)cc32)c1` (stereo not drawn) [Example 280, 4-(3-Chlorophenoxy)-6-(4-morpholin-4-yl-phenyl)-1,2,3,4-tetrahydro-[1,8]naphthyridine], for which the melting point lay in the range of 124 to 126 °C. Besides, the IC50 in series [1] was in the range of 1 to 10 µM. Besides, the IC50 in series [2] fell in the range of 10 to 100 µM.

Consider `O=C1CNc2ncc(I)cc2N1Cc1ccc(C(F)(F)F)o1` [Example 290, 7-Iodo-1-[5-(trifluoromethyl)furan-2-ylmethyl]-3,4-dihydro-1H-pyrido[2,3-b]pyrazin-2-one], for which the melting point is 189 to 191 °C. For the same compound, the IC50 in series [1] lay within 10 to 100 µM. Besides, in series [2], the IC50 is greater than 100 µM.

In turn, `O=C(O)c1ccc(-c2cnc3c(c2)N(Cc2cc(F)ccc2F)CCN3)cc1` [Example 64, 4-[1-(2,5-Difluorobenzyl)-1,2,3,4-tetrahydropyrido[2,3-b]pyrazin-7-yl]benzoic acid] registered a melting point greater than 300 °C. The IC50 in series [1] lay within 0.1 to 1 µM. Moreover, the IC50 in series [2] lay within 10 to 100 µM.

Take `CCOC(=O)CNc1ncc(I)cc1[N+](=O)[O-]` [Example 1, (5-Iodo-3-nitro-pyridin-2-ylamino)-acetic acid ethyl ester]: the melting point is 200 °C (dec.). For the same compound, the IC50 in series [1] is 10 to 100 µM. Moreover, the IC50 in series [2] is 10 to 100 µM.

With `CN1CCN(c2ccc(-c3cnc4c(c3)NCCN4)cn2)CC1` [Example 109, 7-[6-(4-Methylpiperazin-1-yl)pyridin-3-yl]-1,2,3,4-tetrahydropyrido[2,3-b]pyrazine], the melting point is 225 °C (dec.). Also, the IC50 in series [1] was 10 to 100 µM. In series [2], the IC50 is greater than 100 µM.

As to `CCOC(=O)c1ccc(-c2cnc3c(c2)N(Cc2c(F)ccc(F)c2Cl)C(=O)CN3)cc1` [Example 5, 4-[1-(2-Chloro-3,6-difluorobenzyl)-2-oxo-1,2,3,4-tetrahydropyrido[2,3-b]pyrazin-7-yl]benzoic acid ethyl ester], the melting point was in the range of 180 to 182 °C. Also, in series [1], the IC50 lay within 1 to 10 µM. In addition, in series [2], the IC50 was greater than 100 µM.

As to `Cn1cc(-c2cnc3c(c2)N(Cc2cc(Cl)ccc2C(F)(F)F)CCN3)cn1` [Example 203, 1-[5-Chloro-2-(trifluoromethyl)benzyl]-7-(1-methyl-1H-pyrazol-4-yl)-1,2,3,4-tetrahydropyrido[2,3-b]pyrazine], the melting point stood at 156 °C. Also, the IC50 in series [1] lay within 0.1 to 1 µM. For the same compound, the IC50 in series [2] is 1 to 10 µM.

Regarding `O=C(c1ccc(-c2cnc3c(c2)N(Cc2cc(Cl)ccc2C(F)(F)F)CCN3)cc1)N1CCN(c2nccs2)CC1` [Example 288, (4-{1-[5-Chloro-2-(trifluoromethyl)benzyl]-1,2,3,4-tetrahydropyrido[2,3-b]pyrazin-7-yl}phenyl)-(4-thiazol-2-yl-piperazin-1-yl)methanone], the melting point fell in the range of 243 to 244 °C. The concentration for half-maximal inhibition (IC50) in series [1] is 0.1 to 1 µM. For the same compound, in series [2], the IC50 fell in the range of 10 to 100 µM.

The compound `CN1CCN(C(=O)c2ccc(-c3cnc4c(c3)N(Cc3cc(F)ccc3F)CC(C)(C)N4)cc2)CC1` [Example 97, {4-[1-(2,5-Difluorobenzyl)-3,3-dimethyl-1,2,3,4-tetrahydropyrido[2,3-b]pyrazin-7-yl]phenyl}-(4-methylpiperazin-1-yl)methanone] had a melting point of 191 to 192 °C. Further, the IC50 in series [1] lay within 10 to 100 µM. Moreover, the IC50 in series [2] is greater than 100 µM.

Take `Fc1ccc(F)c(CN2CCNc3ncc(I)cc32)c1` [Example 62, 1-(2,5-Difluorobenzyl)-7-iodo-1,2,3,4-tetrahydropyrido[2,3-b]pyrazine]: the melting point was 175 °C. For the same compound, the concentration for half-maximal inhibition (IC50) in series [1] was 1 to 10 µM. The IC50 in series [2] is 10 to 100 µM.

In turn, `OC1CCNc2ncc(Br)cc21` (stereo not drawn) [Example 268, 6-bromo-1,2,3,4-tetrahydro-[1,8]naphthyridin-4-ol] showed a melting point of 125 to 128 °C. Besides, the IC50 in series [1] is greater than 100 µM. In series [2], the concentration for half-maximal inhibition (IC50) was greater than 100 µM.

`Fc1ccc(F)c(/C=C2/CCNc3nc(Br)ccc32)c1` [Example 283, 7-Bromo-4-[1-(2,5-difluorophenyl)methylidene]-1,2,3,4-tetrahydro-[1,8]naphthyridine] came in with a melting point of 178 to 179 °C. Also, the IC50 in series [1] was greater than 100 µM. Moreover, the IC50 in series [2] is greater than 100 µM.

As to `CN(C)CCNC(=O)c1ccc(-c2cnc3c(c2)N(C(=O)c2ccccc2)CCN3)cc1` [Example 52, 4-(1-Benzoyl-1,2,3,4-tetrahydropyrido[2,3-b]pyrazin-7-yl)-N-(2-dimethylamino-ethyl)benzamide], the melting point lay within 145 to 147 °C. Also, the IC50 in series [1] lay within 10 to 100 µM. In series [2], the IC50 lay in the range of 10 to 100 µM.

With `CC1(C)Nc2ncc(-c3ccc(C(=O)N4CCC[C@H]4CN4CCCC4)cc3)cc2N(Cc2cc(F)ccc2F)C1=O` [Example 94, 1-(2,5-Difluorobenzyl)-3,3-dimethyl-7-[4-((S)-2-[(pyrrolidin-1-yl)methyl]pyrrolidine-1-carbonyl)phenyl]-3,4-dihydro-1H-pyrido[2,3-b]pyrazin-2-one], the melting point is 171 to 172 °C. The half-maximal inhibitory concentration (IC50) in series [1] fell in the range of 1 to 10 µM. Moreover, the IC50 in series [2] lay in the range of 10 to 100 µM.

With `CCNC(=O)c1ccc(-c2cnc3c(c2)N(Cc2ccccc2)C(=O)CN3)cc1` [Example 27, 4-(1-Benzyl-2-oxo-1,2,3,4-tetrahydropyrido[2,3-b]pyrazin-7-yl)-N-ethyl-benzamide], the melting point stood at 195 °C. The IC50 in series [1] lay in the range of 10 to 100 µM. In addition, the IC50 in series [2] was 10 to 100 µM.

Turning to `CCOC(=O)c1ccc(-c2cnc3c(c2)N(Cc2cc(Cl)ccc2C(F)(F)F)CCN3)cc1` [Example 193, 4-{1-[5-Chloro-2-(trifluoromethyl)benzyl]-1,2,3,4-tetrahydropyrido[2,3-b]pyrazin-7-yl}benzoic acid ethyl ester], the melting point is 154 °C. Besides, the 50% inhibitory concentration (IC50) in series [1] was greater than 100 µM. Further, in series [2], the 50% inhibitory concentration (IC50) is greater than 100 µM.

On to `CN(C)CC#Cc1cnc2c(c1)N(Cc1cc(Cl)ccc1Cl)CCN2` [Example 173, {3-[1-(2,5-Dichlorobenzyl)-1,2,3,4-tetrahydropyrido[2,3-b]pyrazin-7-yl]prop-2-ynyl}-dimethylamine], for which the melting point was found to be 168 °C. The IC50 in series [1] lay in the range of 1 to 10 µM. In series [2], the IC50 was in the range of 1 to 10 µM.

For `O=C1CNc2ncc(-c3ccc(NS(=O)(=O)CCN4CCOCC4)cc3)cc2N1Cc1cc(F)ccc1F` [Example 50, 2-Morpholin-4-yl-ethanesulfonic acid{4-[1-(2,5-difluorobenzyl)-2-oxo-1,2,3,4-tetrahydropyrido[2,3-b]pyrazin-7-yl]phenyl}-amide], the melting point came out at 225 °C. In addition, the IC50 in series [1] lay within 0.1 to 1 µM. The IC50 in series [2] was greater than 100 µM.

The compound `O=C(c1ccc(-c2cnc3c(c2)N(Cc2c(Cl)cccc2Cl)C(=O)CN3)cc1)N1CCC(N2CCCC2)CC1` [Example 161, 1-(2,6-Dichlorobenzyl)-7-[4-(4-(pyrrolidin-1-yl)piperidine-1-carbonyl)phenyl]-3,4-dihydro-1H-pyrido[2,3-b]pyrazin-2-one] returned a melting point of 199 °C. The IC50 in series [1] lay in the range of 0.1 to 1 µM. Also, the half-maximal inhibitory concentration (IC50) in series [2] fell in the range of 0.1 to 1 µM.

Consider `CN1CCN(C(=O)c2ccc(-c3cnc4c(c3)N(Cc3ccccc3)CCN4)cc2)CC1` [Example 37, [4-(1-Benzyl-1,2,3,4-tetrahydropyrido[2,3-b]pyrazin-7-yl)phenyl]-(4-methylpiperazin-1-yl)methanone], for which the melting point lay in the range of 180 to 181 °C. Moreover, the IC50 in series [1] is 1 to 10 µM. Besides, the 50% inhibitory concentration (IC50) in series [2] fell in the range of 10 to 100 µM.

With `Cc1noc(C)c1-c1cnc2c(c1)N(Cc1c(F)ccc(F)c1Cl)CCN2` [Example 103, 1-(2-Chloro-3,6-difluorobenzyl)-7-(3,5-dimethyl-isoxazol-4-yl)-1,2,3,4-tetrahydropyrido[2,3-b]pyrazine], the melting point was in the range of 215 to 216 °C. Further, the 50% inhibitory concentration (IC50) in series [1] lay in the range of 0.1 to 1 µM. For the same compound, the 50% inhibitory concentration (IC50) in series [2] was in the range of 10 to 100 µM.

For `FC(F)(F)c1ccc(Cl)c(CN2CCNc3ncc(I)cc32)c1` [Example 119, 1-(2-Chloro-5-trifluoromethylbenzyl)-7-iodo-1,2,3,4-tetrahydropyrido[2,3-b]pyrazine], the melting point fell in the range of 120 to 125 °C. In addition, the IC50 in series [1] was greater than 100 µM. The IC50 in series [2] is greater than 100 µM.

(Values after patent US7601716B2, “Pyridopyrazines and derivatives thereof as ALK and c-Met inhibitors” (Cephalon, Inc., priority 2006, dated 2009).)
